Article PMC9611166, “Cocrystal Prediction of Bexarotene by Graph Convolution Network and Bioavailability Improvement” (Pharmaceutics, 2022)
In brackets after ≈: the same amount, converted by molar mass.

Experiments:
[1] = Equilibrium solubility in buffer solutions with 0.05% CTAB; type: physicochemical; conditions: for solubility thermodynamic at 1 day: buffer solution with 0.05% CTAB, aqueous with cosolvent or surfactant or cyclodextrin, thermodynamic from solid, 0.05% CTAB, 37 °C, one day
Procedure: (§1) The concentration of BEX samples was detected by the Agilent 1260 Series Infinite HPLC. The Eclipse XDB-C18 column (4.6 × 150 mm, 5 μm) was used to separate the analytes. The column temperature was set at 30 °C and the injection volume was 10 μL. The mobile phase was composed of 0.1% trifluoroacetic acid in water and acetonitrile (10:90, v/v) pumped at 1.0 mL/min. The 260 nm was set as the UV-vis detection wavelength.
Excess amounts (10 mg) of BEX and four cocrystals samples were added to the 4 mL of pH 2.0, 4.5, and 6.8 buffer solutions respectively, with the presence of 0.05% CTAB (hexadecyl trimethyl ammonium bromide). Then the saturated solutions were stirred at 300 rpm for one day at 37 °C. The equilibrium solubility of BEX was determined by HPLC after filtering the solutions.

[2] = Powder dissolution at pH 6.8 with 0.05% CTAB; type: physicochemical
Procedure: as §1
The solid samples of BEX and four cocrystals were sieved through 100-mesh sieves. In total, 20 mg of BEX and corresponding cocrystal powders (n = 3) were added to pH 6.8 phosphate buffer with the presence of 0.05% CTAB at 37 °C, rotating at 100 rpm. The samples were collected at 5, 10, 15, 20, 30, 40, 50, and 60 min. The concentration was measured by HPLC.

Pharmacokinetics in rats = type: in vivo; conditions: male, Sprague-Dawley, rat, plasma, po, 10 mg/kg BEX, 0.5% CMC-Na suspension, mean ± SD
Procedure: The PK studies were performed according to the Guide for Care and Use of Laboratory Animals and were approved by the Institutional Animal Care and Use Committee of Shanghai Institute of Materia Medica. There were two groups of male Sprague−Dawley rats and the number of rats is six in each group. […] The dose is 10 mg/kg BEX. The animals had free access to water and fasted overnight before dosing. After the administration, the 600 μL blood sample was collected at 0.5, 1, 2, 3, 4, 6, and 8 h. Plasma was separated by centrifugation (14,000 rpm, 10 min) and stored at −80 °C. In total, 200 μL of rat plasma sample was mixed with 600 μL acetonitrile through a vortex mixer for 20 min and centrifuged for 5 min (14,000 rpm). The BEX concentration was measured by the SCIEX Triple Quad™ 4500 LC-MS instrument. The analytes were separated by the Supelco Ascentis Express C18 column (2.1 × 50 mm, 2.7 μm). The column temperature was set at 35 °C. The mobile phase was composed of 0.2% formic acid in water (solvent A) and acetonitrile (solvent B) pumped at 0.6 mL/min. The gradient elution program started with 55% B and increased linearly to 90% B at 1.5 min and held for 0.5 min. It returned to the 55% B at the 3 min and held for 2 min. The injection volume was 10 μL, and the UV-vis detection wavelength was set at 260 nm. The negative ion detection mode was operated in the mass spectrometer. Multiple reaction monitoring modes (MRM) was used to perform the detection and quantification, with m/z 347.3→303.0 for BEX. The DAS 2.0 program was used to perform the PK analysis.

[3] = design: method as in PMID 24333772; conditions: cited from earlier work

C=C(c1ccc(C(=O)O)cc1)c1cc2c(cc1C)C(C)(C)CCC2(C)C [BEX, Bexarotene]
solubility thermodynamic at 1 day ([1]; pH 2.0 buffer): < 10 µg/mL
solubility thermodynamic at 1 day ([1]; pH 4.5 buffer): > 10 µg/mL
solubility thermodynamic at 1 day ([1]; pH 6.8 buffer): ~30 µg/mL (≈ 86.1 µM)
pH value of solution after equilibrium solubility experiment ([1]; starting buffer pH 2.00, n = 3): 2.06 ± 0.01
pH value of solution after equilibrium solubility experiment ([1]; starting buffer pH 4.50, n = 3): 4.58 ± 0.01
pH value of solution after equilibrium solubility experiment ([1]; starting buffer pH 6.80, n = 3): 6.82 ± 0.02
pH value of solution after powder dissolution ([2]; pH 6.8, n = 3): 6.81 ± 0.01
solubility at 60 min ([2]; phosphate buffer with 0.05% CTAB, aqueous with cosolvent or surfactant or cyclodextrin, thermodynamic from solid, pH 6.8 phosphate buffer, 0.05% CTAB, 37 °C, 60 min, read-out: measured solubility in powder dissolution after 60 min): ~30 µg/mL (≈ 86.1 µM)
AUC(0-inf) (Pharmacokinetics in rats): 8790 ± 1080 ng·h/mL
Cmax (Pharmacokinetics in rats): 1680 ± 559 ng/mL
half-life (Pharmacokinetics in rats): 2.98 ± 1.18 h
AUC(0-t) (Pharmacokinetics in rats; read-out: AUC0−8h): 7220 ± 811 ng·h/mL
absolute bioavailability [3]: less than 20%
